Assay results as given in PMC2694832, “Pharmacokinetics, tissue distribution and mass balance of radiolabeled dihydroartemisinin in male rats” (Malaria Journal, 2009).

Test: Tissue distribution of [^14C] DHA
Format: in vivo, rats
Conditions: for Total Amounts of radioactivity in all measured tissues per gram / % of total AUC / Half-lives of radioactivity / Tissue AUC of radioactivity / Distribution of radioactivity: male rats i.v. 3 mg/20 μCi/kg
Description: Rats treated with a single [^14C] DHA dose of 3 mg/20 μCi/kg intravenously (5 rats per group) were anesthaetized by isofluorane and euthanized via cardiac puncture at 1, 6, 24, 48, 72, 96, and 192 hours, post-dosing. Blood, liver, brain, eyes, adrenals, muscle, lungs, heart, liver, kidneys, spleen, stomach, small intestine, large intestine, perirenal fat and bone marrow samples were removed from each animal by gross dissection. The gastrointestinal tract (GI) was separated into the stomach (oesophagus and stomach), small intestine, and large intestine. Contents were procured from each GI segment. After flushing with saline, these and other tissues were stored. Tissues were rinsed gently, but thoroughly with water to remove remaining traces of blood before storage. Dissecting instruments were also washed between tissue procurements to avoid cross-contamination.
For most of the tissues 20% (w/w) aqueous homogenates of the tissue were prepared. Aqueous homogenates of the faecal and GI content samples were also prepared. Metabolism cages were washed with a solution of 2% Count-off® and the volume was measured. Radioactivity in the plasma samples and in aliquots (approx. 0.02–1.0 ml) of urine and cage washings was determined. The blood cells (primarily erythrocytes), perirenal fat (approx. 0.2 g), bone marrow samples (approx. 0.1 ml), and approximately 300-μl aliquots of the homogenates of faeces, liver, kidneys, heart, brain, stomach and carcass were solubilized with SolvableTM tissue solubilizer (Perkin-Elmer Life and Analytical Sciences, Boston, MA). The homogenates of faeces, stomach content, and intestinal contents were extracted with 50% methanol for 24 hours. Aliquots of blood and pooled urine samples from selected intervals were also analysed for DHA content directly.
Total radioactivity in the collected tissue samples were quantified in duplicate. Weighed tissue aliquots (~0.2 g) were digested overnight in 2 ml of Solvable® tissue solubilizer (Perkin-Elmer Life and Analytical Sciences, Boston, MA) at 50°C. Coloured samples were decolourized by adding a maximum of 0.2 ml of 30% H2O2 for 30–60 minutes. Scintillation cocktail (Hyonic Fluor; Perkin-Elmer Boston. Massachusetts, USA) was then added and radioactivity determined in a Perkin-Elmer Tri-Carb 3100 TR scintillation spectrophotometer (Packard Instrument Co., Downers Grove, Illinois, USA). Faeces and intestinal contents were thoroughly homogenized before taking aliquots. Plasma was also analysed using the HPLC-ECD system to measure the concentration of unchanged DHA, as described by Li et al.

SMILES: C[C@@H]1CC[C@H]2[C@@H]([14CH3])C(O)O[C@@H]3O[C@@]4(C)CC[C@@H]1[C@]32OO4 (stereo partly drawn) [[^14C] DHA, [16-^14C] DHA]
- Total Amounts of radioactivity in all measured tissues per gram (1 hr): 87,187 ng equivalents/tissue gram
- Total Amounts of radioactivity in all measured tissues per gram (1 hr, listed as [^14C]-dihydroartemisinin): 87186.55 ng equivalents/tissue gram
- radioactivity in the total measured tissues amassed in the small intestine and its content (1 hr, rats i.v. 3 mg/20 μCi/kg): approximately 62.6%
- Total Amounts of radioactivity in all measured tissues per gram (6 hr): 86023 ng equivalents/tissue gram
- Total Amounts of radioactivity in all measured tissues per gram (6 hr, listed as [^14C]-dihydroartemisinin): 86023.26 ng equivalents/tissue gram
- Total Amounts of radioactivity in all measured tissues per gram (24 hr): 21,457 ng equivalents/tissue gram
- Total Amounts of radioactivity in all measured tissues per gram (24 hr, listed as [^14C]-dihydroartemisinin): 21457.06 ng equivalents/tissue gram
- Total Amounts of radioactivity in all measured tissues per gram (48 hr): 16,390 ng equivalents/tissue gram
- Total Amounts of radioactivity in all measured tissues per gram (48 hr, listed as [^14C]-dihydroartemisinin): 16390.68 ng equivalents/tissue gram
- Total Amounts of radioactivity in all measured tissues per gram (72 hr): 15,831 ng equivalents/tissue gram
- Total Amounts of radioactivity in all measured tissues per gram (72 hr, listed as [^14C]-dihydroartemisinin): 15831.77 ng equivalents/tissue gram
- Total Amounts of radioactivity in all measured tissues per gram (96 hr): 11,385 ng equivalents/tissue gram
- Total Amounts of radioactivity in all measured tissues per gram (96 hr, listed as [^14C]-dihydroartemisinin): 11385.67 ng equivalents/tissue gram
- Total Amounts of radioactivity in all measured tissues per gram (192 hr): 13,961 ng equivalents/tissue gram
- Total Amounts of radioactivity in all measured tissues per gram (192 hr, listed as [^14C]-dihydroartemisinin): 13961.18 ng equivalents/tissue gram
- % of total AUC (Adrenals): 10.59%
- Half-lives of radioactivity (Adrenals): 92.48 ± 44.34 h
- Tissue AUC of radioactivity (Adrenals): 448,390 ng·hr/g
- Tissue AUC of radioactivity (Adrenals, listed as [^14C]-dihydroartemisinin): 448390 ± 273502 ng·h/g
- Distribution of radioactivity (Blood, 1 hr): 936.19 ng equivalents/tissue gram
- Distribution of radioactivity (Blood, 6 hr): 795.07 ng equivalents/tissue gram
- Distribution of radioactivity (Blood, 24 hr): 366.76 ng equivalents/tissue gram
- Distribution of radioactivity (Blood, 48 hr): 252.05 ng equivalents/tissue gram
- Distribution of radioactivity (Blood, 72 hr): 194.59 ng equivalents/tissue gram
- Distribution of radioactivity (Blood, 96 hr): 130.92 ng equivalents/tissue gram
- Distribution of radioactivity (Blood, 192 hr): 118.71 ng equivalents/tissue gram
- % of total AUC (Blood): 1.07%
- Half-lives of radioactivity (Blood): 122.13 ± 8.73 h
- Tissue AUC of radioactivity (Blood): 45463 ± 6810 ng·h/g
- % of total AUC (Brain): 0.81%
- Half-lives of radioactivity (Brain): 72.21 ± 6.33 h
- Tissue AUC of radioactivity (Brain): 34,189 ng·hr/g
- Tissue AUC of radioactivity (Brain, listed as [^14C]-dihydroartemisinin): 34189 ± 4885 ng·h/g
- % of total AUC (Eyes): 0.39%
- Half-lives of radioactivity (Eyes): 75.22 ± 9.40 h
- Tissue AUC of radioactivity (Eyes): 16519 ± 3048 ng·h/g
- % of total AUC (Fat): 0.60%
- Half-lives of radioactivity (Fat): 131.69 ± 21.94 h
- Tissue AUC of radioactivity (Fat): 25253 ± 1490 ng·h/g
- Distribution of radioactivity (Heart, 1 hr): 1512.27 ng equivalents/tissue gram
- Distribution of radioactivity (Heart, 6 hr): 1107.89 ng equivalents/tissue gram
- Distribution of radioactivity (Heart, 24 hr): 647.58 ng equivalents/tissue gram
- Distribution of radioactivity (Heart, 48 hr): 527.3 ng equivalents/tissue gram
- Distribution of radioactivity (Heart, 72 hr): 568.43 ng equivalents/tissue gram
- Distribution of radioactivity (Heart, 96 hr): 377.26 ng equivalents/tissue gram
- Distribution of radioactivity (Heart, 192 hr): 443.20 ng equivalents/tissue gram
- % of total AUC (Heart): 2.47%
- Half-lives of radioactivity (Heart): 74.35 ± 25.84 h
- Tissue AUC of radioactivity (Heart): 104,598 ng·hr/g
- Tissue AUC of radioactivity (Heart, listed as [^14C]-dihydroartemisinin): 104598 ± 24036 ng·h/g
- Distribution of radioactivity (Kidneys, 1 hr): 4097.87 ng equivalents/tissue gram
- Distribution of radioactivity (Kidneys, 6 hr): 4502.00 ng equivalents/tissue gram
- Distribution of radioactivity (Kidneys, 24 hr): 2535.56 ng equivalents/tissue gram
- Distribution of radioactivity (Kidneys, 48 hr): 2324.72 ng equivalents/tissue gram
- Distribution of radioactivity (Kidneys, 72 hr): 3286.27 ng equivalents/tissue gram
- Distribution of radioactivity (Kidneys, 96 hr): 1802.63 ng equivalents/tissue gram
- Distribution of radioactivity (Kidneys, 192 hr): 1819.89 ng equivalents/tissue gram
- % of total AUC (Kidneys): 4.53%
- Half-lives of radioactivity (Kidneys): 77.90 ± 8.41 h
- Tissue AUC of radioactivity (Kidneys): 191,781 ng·hr/g
- Tissue AUC of radioactivity (Kidneys, listed as [^14C]-dihydroartemisinin): 191781 ± 66422 ng·h/g
- Distribution of radioactivity (LI Content, 1 hr): 2914.59 ng equivalents/tissue gram
- Distribution of radioactivity (LI Content, 6 hr): 35567.01 ng equivalents/tissue gram
- Distribution of radioactivity (LI Content, 24 hr): 5127.28 ng equivalents/tissue gram
- Distribution of radioactivity (LI Content, 48 hr): 2037.53 ng equivalents/tissue gram
- Distribution of radioactivity (LI Content, 72 hr): 1426.62 ng equivalents/tissue gram
- Distribution of radioactivity (LI Content, 96 hr): 491.66 ng equivalents/tissue gram
- Distribution of radioactivity (LI Content, 192 hr): 1333.83 ng equivalents/tissue gram
- % of total AUC (LI Content): 13.90%
- Half-lives of radioactivity (LI Content): 37.20 ± 6.08 h
- Tissue AUC of radioactivity (LI Content): 588,542 ng·hr/g
- Tissue AUC of radioactivity (LI Content, listed as [^14C]-dihydroartemisinin): 588542 ± 104261 ng·h/g
- Distribution of radioactivity (Large intestine (LI), 1 hr): 1818.56 ng equivalents/tissue gram
- Distribution of radioactivity (Large intestine (LI), 6 hr): 8394.43 ng equivalents/tissue gram
- Distribution of radioactivity (Large intestine (LI), 24 hr): 1420.58 ng equivalents/tissue gram
- Distribution of radioactivity (Large intestine (LI), 48 hr): 562.96 ng equivalents/tissue gram
- Distribution of radioactivity (Large intestine (LI), 72 hr): 509.29 ng equivalents/tissue gram
- Distribution of radioactivity (Large intestine (LI), 96 hr): 220.41 ng equivalents/tissue gram
- Distribution of radioactivity (Large intestine (LI), 192 hr): 304.72 ng equivalents/tissue gram
- % of total AUC (Large intestine (LI)): 1.66%
- Half-lives of radioactivity (Large intestine (LI)): 62.53 ± 43.59 h
- Tissue AUC of radioactivity (Large intestine (LI)): 70,217 ng·hr/g
- Tissue AUC of radioactivity (Large intestine (LI), listed as [^14C]-dihydroartemisinin): 70217 ± 25001 ng·h/g
- Distribution of radioactivity (Liver, 1 hr): 4594.85 ng equivalents/tissue gram
- Distribution of radioactivity (Liver, 6 hr): 3516.69 ng equivalents/tissue gram
- Distribution of radioactivity (Liver, 24 hr): 1403.29 ng equivalents/tissue gram
- Distribution of radioactivity (Liver, 48 hr): 1104.94 ng equivalents/tissue gram
- Distribution of radioactivity (Liver, 72 hr): 1503.74 ng equivalents/tissue gram
- Distribution of radioactivity (Liver, 96 hr): 842.90 ng equivalents/tissue gram
- Distribution of radioactivity (Liver, 192 hr): 1270.24 ng equivalents/tissue gram
- % of total AUC (Liver): 4.07%
- Half-lives of radioactivity (Liver): 95.18 ± 37.90 h
- Tissue AUC of radioactivity (Liver): 172,474 ng·hr/g
- Tissue AUC of radioactivity (Liver, listed as [^14C]-dihydroartemisinin): 172474 ± 85780 ng·h/g
- Distribution of radioactivity (Lungs, 1 hr): 1161.72 ng equivalents/tissue gram
- Distribution of radioactivity (Lungs, 6 hr): 1040.99 ng equivalents/tissue gram
